Test results reported in patent publication US20260001792A1, “METHOD FOR PRODUCING SLIME-SUPPRESSING AUXILIARY AGENT FOR REVERSE OSMOSIS MEMBRANE, SLIME-SUPPRESSING AUXILIARY AGENT FOR REVERSE OSMOSIS MEMBRANE, AND WATER TREATMENT METHOD” (ORGANO CORPORATION, priority 2022, published 2026).

Experiments:
[1] = Effects on membrane: flux and EC rejection rate before/after contact with agent
Experimental: The effects on a reverse osmosis membrane were evaluated for the case where the mixture of the slime-suppressing auxiliary agent for a reverse osmosis membrane (potassium iodide aqueous solution (KI)) and sodium hypochlorite (NaClO) from the example was used.
The flux and EC rejection rate of the reverse osmosis membrane are measured prior to contact with the agent • 2. The agent is brought into contact with the reverse osmosis membrane at a theoretical value for the CT value of 30,000 (mg/L as Cl^2×h) • 3. The flux and EC rejection rate of the reverse osmosis membrane are measured following the contact with the agent
The flux was calculated by dividing the permeate volume per prescribed time period at 25° C. by the membrane surface area and the operating pressure. The EC rejection rate was determined by measuring the conductivity of the permeate and the conductivity of the feed water using a conductivity measurement apparatus, with the EC rejection rate calculated as (100−[permeate conductivity/feed water conductivity]×100).

[2] = Effect of amount added of iodide ions on oxidation-reduction potential (ORP); assay type: physicochemical; conditions: sodium hypochlorite 1 mg/L as Cl2, stirred 3 minutes after potassium iodide addition
Experimental: A sodium hypochlorite aqueous solution was added to ultrapure water prepared with a prescribed pH value in sufficient amount to provide 1 mg/L as Cl2, potassium iodide was then added to the solution and stirred for 3 minutes, and the oxidation-reduction potential (ORP) was then measured. […] The oxidation-reduction potential (ORP) was measured using an ORP meter (RM-2oP) manufactured by DKK-TOA Corporation.

For OCl [NaClO, sodium hypochlorite], the Flux after contact ([1]; ESPA2, pH 7, after contact at CT value 30,000) was 4.1 m/(d · MPa) and the Flux before contact ([1]; ESPA2, pH 7, baseline before contact with agent) was 2.0 m/(d · MPa).
For [Na+].[O-]Cl [Reference Example 8, sodium hypochlorite], the ORP ([2]; pH 4) was 837 mV.
In the case of [Na+].[O-]Cl [Reference Example 10, sodium hypochlorite], the ORP ([2]; pH 7) was 638 mV.
For [Na+].[O-]Cl [Reference Example 12, sodium hypochlorite], the ORP ([2]; pH 10) was 359 mV.
